Counter-ions that a name gives are not always drawn. Like-named read-outs stand apart in the source and are kept apart here.
Legend:
[1] = tested on: carrageenin edema; assay: carrageenin edema test in rats (antiinflammatory activity); format: in vivo; conditions: Rattus norvegicus, po, read-out: % Decrease of the edema; for inhibition in vivo at 50 mg/kg: dose 50 mg/kg p.o. in rats; for inhibition in vivo at 200 mg/kg: dose 200 mg/kg p.o. in rats; for inhibition in vivo at 100 mg/kg: dose 100 mg/kg p.o. in rats
Text: The anti-inflamatory activity of the indole derivatives is evidenced by means of the carrageenin edema test in rats. In representative experiments compounds of formula I provoked a substantial decrease of the induced edema at dosage levels from about one fifth to about one tenth of their respective LD50 values. The following table reports the results of the experiments:
The following table reports the percent inhibitory effect of some representative compounds of the formula II in the carrageenin edema test.

[2] = LD50 p.o. in rats (acute toxicity); conditions: rat, in vivo, po
[3] = tested on: pain threshold of inflammed foot of the rat; assay: analgesic effect on pain threshold of inflamed foot of the rat (Randall and Selitto); format: in vivo; conditions: vs acetylsalicylic acid
[4] = compounds of the examples (formula I)

Row | SMILES | inhibition in vivo at 50 mg/kg ([1]; hydrazines of formula II) [%] | LD50 ([2]; hydrazines of formula II) [mg/kg] | LD50 [2, 4] [mg/kg] | other results
1 | COc1ccc(N(C)NC(=O)C(C)C)cc1 [1-(p-Methoxyphenyl)-1-methyl-2-isobutyrylhydrazine] | 30 | 500 |  | 
2 | CN(NC(=O)CCCN1C(=O)c2ccccc2C1=O)c1ccccc1 [1-Phenyl-1-methyl-1-( -phthalimido-butyryl)-hydrazine] |  | > 1000 |  | inhibition in vivo at 200 mg/kg ([1]; hydrazines of formula II): 28%
3 | CCC(C)C(=O)NN(C)c1ccccc1 (stereo not drawn) [1-Phenyl-1-methyl-2-(2-methylbutyryl)-hydrazine] |  | > 1000 |  | inhibition in vivo at 100 mg/kg ([1]; hydrazines of formula II): 40%
4 | CC(=O)NN(C)c1ccccc1 [1-Phenyl-1-methyl-2-acetylhydrazine] | 57 | 500 |  | 
5 | CN(NC(=O)C1CCCCC1)c1ccccc1 [1-Phenyl-1-methyl-2-cyclohexanoyl hydrazine] | 37 | 500 |  | 
6 | CN(NC(=O)C1CCCC1)c1ccccc1 [1-Phenyl-1-methyl-2-cyclopentanoylhydrazine] | 37 | 500 |  | 
7 | CN(NC(=O)C1CC1)c1ccccc1 [1-Phenyl-1-methyl-2-cyclopropanoylhydrazine] | 35 | 500 |  | 
8 | CC(C)C(=O)NN(C)c1ccccc1 [1-Phenyl-1-methyl-2-isobutyrylhydrazine] | 36 | 500 |  | 
9 | CCC(=O)NN(C)c1ccccc1 [1-Phenyl-1-methyl-2-propionylhydrazine] | 30 | 500 |  | 
10 | COc1cccc(-c2c(N)n(C)c3ccccc23)c1 [Example 9, 2-amino-3-(m-anisyl)-1-methylindole hydrochloride] |  |  | > 1000 | inhibition in vivo at 100 mg/kg [1, 4]: 30%; inhibition in vivo at 200 mg/kg [1, 4]: 41%
11 | CN1C(=N)C2(CCCCC2)c2ccccc21 [Example 13, 2'-imino-1'-methyl-spyro(cyclohexane-1,3'-indoline)hydrochloride] |  |  | 100 | inhibition in vivo at 8 mg/kg ([1]; compounds of the examples (formula I), dose 8 mg/kg p.o. in rats): 45%; inhibition in vivo at 20 mg/kg ([1]; compounds of the examples (formula I), dose 20 mg/kg p.o. in rats): 60%; analgesic activity relative to acetylsalicylic acid (times as active) [3]: about 25 times
12 | CN1C(=NC(=O)c2ccccc2)C(C)(C)c2ccccc21 [Example 28, 2-Benzoylimino-1,3,3-trimethylindoline] |  |  | > 1000 | inhibition in vivo at 100 mg/kg [1, 4]: 35%; inhibition in vivo at 200 mg/kg [1, 4]: 45%
13 | Cn1c(NC(=O)Nc2ccccc2)c(-c2ccc(Cl)cc2)c2ccccc21 [Example 34, 3-(p-Chlorophenyl)-1-methyl-2-phenylureidoindole] |  |  | > 1000 | inhibition in vivo at 200 mg/kg [1, 4]: 33%

Source: patent US3984563A, “Antiinflammatory 2-imino-indolines and their pharmaceutical compositions” (Gruppo Lepetit S.p.A., priority 1973, dated 1976)
